According to PMC9939733 (The Journal of Biological Chemistry, 2023):
Numbering of substitutions follows the chain as printed. Values joined by “and” are separate entries in the source; they are usually repeats but may differ in a detail not shown here. Equal values may be shown once.

Assays:
Format in all cases: biochemical
R140Q IDH2 = target: T1, R140Q IDH2 (Homo sapiens, UniProt P48735, R140Q); assay: Absorbance assay, variant activity in the presence of equimolar 2OG (inhibition screen); conditions: 6.0 mM 2OG and 6.0 mM test compound, 0.03 μM R140Q IDH2, 50 μM NADPH
T1 construct: made in house; host or cells: Sf21 insect cells (cell pellets prepared at Evotec)
T1 sequence (P48735 40-452 R140Q): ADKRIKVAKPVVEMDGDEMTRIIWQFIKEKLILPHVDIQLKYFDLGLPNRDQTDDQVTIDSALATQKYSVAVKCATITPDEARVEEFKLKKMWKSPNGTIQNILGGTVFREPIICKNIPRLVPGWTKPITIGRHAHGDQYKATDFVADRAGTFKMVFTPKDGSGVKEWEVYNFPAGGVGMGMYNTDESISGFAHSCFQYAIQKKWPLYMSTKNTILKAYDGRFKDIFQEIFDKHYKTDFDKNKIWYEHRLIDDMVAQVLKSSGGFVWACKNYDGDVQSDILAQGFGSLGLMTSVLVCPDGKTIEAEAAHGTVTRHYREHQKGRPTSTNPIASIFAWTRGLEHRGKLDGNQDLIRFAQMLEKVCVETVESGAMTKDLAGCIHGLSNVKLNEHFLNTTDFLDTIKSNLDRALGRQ
Outline: (§1)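 Values come from four technical replicates per reaction; compound transfer used a simultaneous pipettor and reagent dispensing triggered the start.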

R172K IDH2 = target: T2, R172K IDH2 (Homo sapiens, UniProt P48735, R172K); assay: as above; conditions: 1.0 mM 2OG and 1.0 mM test compound, 0.03 μM R172K IDH2, 50 μM NADPH
T2 construct: made in house; host or cells: Sf21 insect cells (cell pellets prepared at Evotec)
T2 sequence (P48735 40-452 R172K): T1 sequence (P48735 40-452 R140Q) with Q101R, R133K
Outline: as §1

WT IDH1 = target: T3, WT IDH1 (Homo sapiens, UniProt O75874); assay: Absorbance assay, WT activity in the presence of equimolar DL-isocitrate (inhibition); conditions: […] isocitrate and […] test compound, 75 μM NADP+, 2.0 nM WT IDH1
T3 construct: made in house; host or cells: Escherichia coli BL21(DE3) pLyS
Outline: as §1

WT IDH2 = target: T4, WT IDH2 (Homo sapiens, UniProt P48735); assay: as above; conditions: […] isocitrate and […] test compound, 75 μM NADP+, 2.0 nM WT IDH2
T4 construct: made in house; host or cells: Sf21 insect cells (cell pellets prepared at Evotec)
T4 sequence (P48735 40-452): T1 sequence (P48735 40-452 R140Q) with Q101R
Outline: as §1

R132H IDH1 [1] = target: T5, R132H IDH1 (Homo sapiens, UniProt O75874, R132H); assay: Absorbance assay, variant activity in the presence of equimolar 2OG (inhibition screen); design: made in house; host or cells: Escherichia coli BL21(DE3) pLyS; conditions: […] 2OG and […] test compound, 0.03 μM R132H IDH1, 50 μM NADPH
Outline: as §1
Target sequence in this assay (O75874 whole entry R132H): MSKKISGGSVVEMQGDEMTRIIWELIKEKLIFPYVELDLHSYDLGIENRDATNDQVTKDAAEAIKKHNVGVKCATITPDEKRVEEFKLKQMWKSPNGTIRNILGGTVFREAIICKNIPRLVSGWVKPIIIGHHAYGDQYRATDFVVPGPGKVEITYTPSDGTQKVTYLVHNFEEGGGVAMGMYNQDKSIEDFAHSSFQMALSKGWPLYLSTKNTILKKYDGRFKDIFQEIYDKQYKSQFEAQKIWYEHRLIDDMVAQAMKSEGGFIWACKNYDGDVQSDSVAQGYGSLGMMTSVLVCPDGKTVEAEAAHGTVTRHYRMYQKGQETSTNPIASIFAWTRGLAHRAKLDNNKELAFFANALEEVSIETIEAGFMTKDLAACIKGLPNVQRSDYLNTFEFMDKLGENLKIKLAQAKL

R132H IDH1 [2] = target: T5, R132H IDH1; assay: Steady-state kinetics, absorbance assay; design: made in house; host or cells: Escherichia coli BL21(DE3) pLyS
Experimental: Compounds were dispensed using a CyBio SDW-CW CyBi-Well Simultaneous Pipettor and assay started using a ThermoFisher Multidrop Combi reagent dispenser.
Reactions were performed as technical duplicates, and all assays were carried out in two independent duplicates.
Target sequence in this assay (O75874 whole entry R132H): as above

R132H IDH1 [3] = target: T5, R132H IDH1; assay: Electrochemical assay (FNR+R132H IDH1)@ITO/PGE electrode; design: made in house; host or cells: Escherichia coli BL21(DE3) pLyS (IDH1 R132H)
Experimental: Assays were carried out in an anaerobic glovebox (Glove Box Technology) under a nitrogen atmosphere. A potentiostat (Autolab PGSTAT 10) running on Nova software was used for all experiments. As previously described, the electrochemical apparatus included an Autolab electrode rotator, a two-chamber custom-made glass electrochemical cell, and custom-made rotating pyrolytic graphite edge (PGE) electrodes ([55]). Platinum wire was used as the counter electrode; it was placed in the working electrode chamber. Electrode potentials (E) were measured against a saturated calomel electrode and converted to the standard hydrogen electrode using a temperature-dependent equation (at 25 °C: ESHE = ESCE + 0.2412 V) ([55]). Nanoporous indium tin oxide (ITO) electrodes were made by electrophoretically depositing ITO nanoparticles (<50 nm, Sigma-Aldrich) onto PGE electrodes (ITO/PGE) as previously described ([55]). […] In all experiments, 0.85 nmol (homodimer basis) of IDH1 R132H was used; the amount of coloaded FNR was adjusted to achieve the desired enzyme loading ratio. Electrodes loaded with enzyme were thoroughly rinsed using buffer solution before each experiment to remove excess enzyme. […]
and controlled electrochemically under steady-state conditions (1).
Conditions: 25 °C, mixed buffer (20 […]
mM each MES, TAPS, CHES, pH 8.0), 10 mM MgCl2, 10 µM NADPH, 4 mL cell volume, (FNR+R132H IDH1)@ITO/PGE electrode, electrode area 0.06 cm2, rotated at 1000 rpm, E = –0.513 V vs SHE, enzyme loading ratios (molar): FNR/R132H IDH1; 2.5 (dimer basis).
(1 picture or pasted object on this page, not shown here)
Target sequence in this assay (O75874 2-414 R132H): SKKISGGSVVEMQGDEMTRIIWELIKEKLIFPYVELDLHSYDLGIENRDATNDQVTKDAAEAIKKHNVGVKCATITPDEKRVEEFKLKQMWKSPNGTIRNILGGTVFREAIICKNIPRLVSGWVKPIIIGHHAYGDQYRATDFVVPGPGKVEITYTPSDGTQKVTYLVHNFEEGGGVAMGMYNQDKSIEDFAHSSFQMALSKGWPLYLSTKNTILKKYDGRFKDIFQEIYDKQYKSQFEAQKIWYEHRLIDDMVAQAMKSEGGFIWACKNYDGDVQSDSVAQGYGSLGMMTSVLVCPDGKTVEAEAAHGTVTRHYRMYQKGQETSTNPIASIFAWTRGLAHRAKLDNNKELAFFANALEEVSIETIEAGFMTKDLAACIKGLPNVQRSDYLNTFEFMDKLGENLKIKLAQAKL

[4] = 0.03 μM enzyme, 50 μM NADPH, 20 mM MgCl2, pH 8.0

T3 sequence (O75874 whole entry): as the sequence (O75874 whole entry R132H) above, with H132R counted along it

- activity [%] (%-substrate conversion after 20 min incubation) (R140Q IDH2): 100%
- activity [%] (%-substrate conversion after 20 min incubation) (R172K IDH2): 100%
- activity [%] (%-substrate conversion after 20 min incubation) (WT IDH1): 93 ± 1%
- activity [%] (%-substrate conversion after 20 min incubation) (WT IDH2): 91 ± 1%
- activity [%] (%-substrate conversion after 20 min incubation) (R132H IDH1 [1]): 100%
- Kmapp (R132H IDH1 [2]; [4]): ~ 0.85 mM and 0.85 ± 0.19 mM and 0.85 mM
- kcatapp (R132H IDH1 [2]; [4]): 0.72 ± 0.04 s⁻¹ and 0.5 to 0.7 s⁻¹
- Vmax (R132H IDH1 [2]; experimental value used for Michaelis-Menten simulation, Fig. 3H): 1.3 µM/min
- predicted change in catalytic rate (R132H IDH1 [3]): −9%
- Kmapp (electrochemical assay) (R132H IDH1 [3]; 25 °C, pH 8.0, 10 mM MgCl2, 10 µM NADPH, nanoconfined enzyme): ~0.6 mM
- decrease of R132H IDH1 faradaic 'coupled' current during each scan (R132H IDH1 [3]; cyclic voltammetry, stationary electrode, 20 μM NADPH, 10 mM MgCl2, pH 8): −10%
SMILES: O=C(O)CCC(=O)C(=O)O [2OG, 2-oxoglutarate, reference compound]
